Assay results reported in patent US9371527B2, “Compositions and methods related to protein displacement therapy for myotonic distrophy” (University of Rochester, priority 2006, dated 2016).

Experiments:
[1] = tested on: recombinant MBNL1 protein with (CUG)109 RNA; test: Gel shift assay of MBNL1 with (CUG)109 RNA in presence of CAG25 morpholino; format: binding, human; conditions: increasing amounts of CAG25 morpholino
Source text: Interaction of recombinant MBNL1 protein with (CUG)109 RNA was examined by gel shift assay, in the presence of increasing amounts of CAG25 morpholino.
Also disclosed herein are methods involving the interaction of soluble, fluorescently-labeled MBNL1 protein with poly(CUG)^109 tethered at the surface of a microtiter plate. Different commercial microtiter plates for capacity to bind in vitro transcribed poly(CUG)^109 and background activity (non-specific binding of labeled MBNL1). For tethering poly(CUG)^109 to plates, a “capture” oligodeoxynucleotide (ODN) complementary to the A-rich 3′ terminus of the poly(CUG)^109 transcript, labeled either with biotin or a reactive group at the 5′ end for attachment to the plate (shown in FIG. 3C in the case of biotin) was used. […] Next, the concentration of capture ODN that saturates binding sites (12.5 pmoles/100 μl/well) and the concentration of poly(CUG)^109 that saturates the capture ODN (of 5 pmole added per well, 0.5 pmole was bound to capture ODN) were determined. Additionally, conditions for fluorescence labeling of MBNL1 protein via conjugation between primary amines on protein and fluorescein-EX dyes (Molecular Probes) were determined. The detection threshold and range of linearity was determined for labeled protein in gels and microplates (FIG. 2B). […]

[2] = tested on: MBNL1 protein in ribonuclear foci; test: MBNL1 immunofluorescence after CAG25 morpholino injection into tibialis anterior; format: in vivo, HSA^LR transgenic mice; conditions: intramuscular injection + electroporation, vs saline contralateral
Description: The morpholino was compromised entirely of CAG repeats and was 25 nucleotides in length (CAG25). CAG25 morpholino dissolved in phosphate buffered saline was injected into tibialis anterior muscle of HSA^LR transgenic mice, followed by electroporation to facilitate entry into muscle cells. The contralateral tibialis anterior muscle was injected with saline alone, followed by electroporation. The distribution of MBNL1 in tibialis anterior was determined by immunofluorescence with anti-MBNL1 antibody A2764. In muscle injected with saline, MBNL1 was sequestered in ribonuclear foci (nuclei are counterstained with DAPI).

[3] = tested on: SERCA1 alternative splicing; test: RT-PCR of SERCA1 alternative splicing after CAG25 morpholino; format: in vivo, HSA^LR transgenic mice; conditions: 3 weeks following CAG25 injection, tibialis anterior, 4 mice
Source text: Morpholino-treated muscle is indicated by “+”. Results from tibialis anterior in the opposite hindlimb, injected with saline alone, are indicated by “−”. The side of morpholino injection was randomly determined, and this assignment remained blinded until after the splicing analysis was completed. Het. dupl. indicates a heteroduplex PCR product.

[4] = tested on: ZASP alternative splicing; test: RT-PCR of ZASP alternative splicing after CAG25 morpholino; format: in vivo, HSA^LR transgenic mice; conditions: 3 weeks following CAG25 injection, tibialis anterior
Source text: Morpholino-treated muscle is indicated by “+”. Results from tibialis anterior in the opposite hindlimb, injected with saline alone, are indicated by “−”. The side of morpholino injection was randomly determined, and this assignment remained blinded until after the splicing analysis was completed.

[5] = tested on: ClC-1 exon 7a alternative splicing; test: RT-PCR of ClC-1 alternative splicing after CAG25 morpholino; format: in vivo, HSA^LR transgenic mice; conditions: tibialis anterior, vs saline contralateral
Source text: Adult wild-type (WT) mice show low levels of exon 7a inclusion. In HSA^LR transgenic mice, the fraction of ClC-1 splice products that include exon 7a is increased. Inclusion of exon 7a causes a frame shift and creates a premature termination codon that truncates most of the ClC-1 coding sequence. Of note, transcripts that include exon 7a have accelerated degradation via nonsense mediated decay, therefore they are underrepresented at steady state and on this gel. The higher bands on the gel are other alternative splice products, as shown (Mankodi et al, Molecular Cell 10:35-44, 2002.) In HSA^LR transgenic mice, injection of CAG morpholino into tibialis anterior improved the defect of ClC-1 alternative splicing. Morpholino-treated muscle is indicated by “+”. Results from tibialis anterior in the opposite hindlimb, injected with saline alone, are indicated by “−”.

ClC-1 chloride channel = test: ClC-1 immunofluorescence after CAG25 morpholino; format: in vivo, HSA^LR transgenic mice; conditions: 3 weeks following injection
Source text: Immunofluorescence for ClC-1 chloride channel is shown in sections of tibialis anterior muscle from HSA^LR transgenic mice. Muscle fibers show mosaic expression of ClC-1 in HSA^LR muscle injected with saline. Some of these fibers are completely lacking in ClC-1 protein.

HSA^LR transgenic mice = test: Electromyography of myotonia after CAG25 morpholino; format: in vivo; conditions: p<0.001
Source text: FIG. 17 uses Electromyography to show the improvement of myotonia at 3 and 6 weeks after injection of CAG25 morpholino into tibialis anterior of HSA^LR transgenic mice. Myotonia is a state of muscle hyperexcitability in which muscle fibers display repetitive action potentials. Myotonia in the HSA^LR transgenic mouse model of myotonic dystrophy is caused by abnormal regulation of alternative splicing for ClC-1 and subsequent reduction of chloride ion channels in muscle fibers. A parallel abnormality of ClC-1 alternative splicing exists in human myotonic dystrophy. […] For each mouse, CAG25 morpholino dissolved in saline was injected into tibialis anterior muscle of one hindlimb, whereas saline alone was injected into tibialis anterior on the opposite side. The side of morpholino injection was randomly assigned. Electromyography was performed by a blinded examiner Severity of myotonia was graded on a 4 point scale: 0=no myotonic, 1=occasional myotonic discharge (fewer than 25% of needle insertions), 2=abundant myotonic discharges (25-75% of needle insertions), and 3=florid myotonia (myotonic discharges in nearly every needle insertion).

(CUG)109 hairpins = test: Non-denaturing gel: PNA-CAG interaction with fluorescein-labeled (CUG)109 transcript; format: binding; conditions: (CUG)109 10 nM, PNA 8-0.25 μM, 30 min
Description: (§1) FIGS. 30A and 30B show protein displacement therapy with peptide nucleic acid (PNA) oligomers composed of CAG repeats.
(§2) Previously it was shown that expanded CUG repeat RNA forms stable hairpin structures (Tian B, et al. RNA 2000; 6:79-87). […] This transcript was incubated 30 min with different concentrations (8, 4, 2, 1, 0.5, 0.25 μM) of PNAs containing different length of CAG repeat sequence (PNA-CAG-6, Nterm-CAGCAG; PNA-CAG-9, Nterm-CAGCAGCAG; PNA-CAG-12, Nterm-CAGCAGCAGCAG (SEQ ID NO: 14); or PNA-CAG-15, Nterm-CAGCAGCAGCAGCAG) (SEQ ID NO: 15). FIG. 30B provides a variation including 5 PNA concentrations (4, 2, 1, 0.5, 0.25 μM) and after additional 30 min incubation step with recombinant MBNL1 (200 nM). Lane “C” in each panel is a control showing migration of fluorescein-labeled (CUG)109 transcript without PNA or MBNL1. Rapid migration of this transcript is caused by hairpin formation. […] Lanes “C+” in panel “B” show controls that contain (CUG)109 transcript and MBNL1 protein without PNA. These lanes show diffuse smear of (CUG)109 transcript, due to formation of heterogenous high molecular weight RNA-protein complexes. Addition of PNA displaces the MBNL1 protein from expanded CUG repeat RNA, disrupting these complexes and reconstituting a sharp band of (CUG)109 transcript. […]

[6] = tested on: interaction of (CUG)109 RNA with MBNL1 protein; test: Non-denaturing gel: PNA-CAG displacement of MBNL1 from (CUG)109 RNA; format: binding; conditions: PNA 4-0.25 μM, then MBNL1 200 nM 30 min
Description: as §1, §2

[7] = molecular target: T1, interaction of recombinant MBNL1 protein with (CUG)109 RNA (Homo sapiens, UniProt Q9NR56); test: Filter binding screening assay for inhibitors of MBNL1-(CUG)109 RNA interaction; conditions: compound+(CUG)109 RNA 5 minutes, then recombinant MBNL1 15 minutes, among 9 aminoglycoside compounds tested
T1 construct: GST (with Prescission protease cleavage site) (N); made in house; host or cells: E. coli BL21(DE3)
Description: The order of addition was compound+(CUG)109 RNA (incubate 5 minutes), followed by recombinant MBNL1 protein (15 minute incubation), followed by application to filter.
Next, optimal conditions were defined (ionic-strength, monovalent cations, Mg^++ and other additions, temperature) for MBNL1-poly(CUG)^109 binding in solution. All forms of recombinant MBNL1 that were tested (GST fused or cleaved, full-length or truncation of C terminal hydrophobic region, 41 or 42 kD isoform) bind to poly(CUG)^109 at low protein concentration (FIG. 3, Kd values ˜10 nM), as determined by nitrocellulose filter binding assays. In this assay, nonspecific binding of labeled RNA to nitrocellulose was very low (<0.2% of maximal positive signal). As described below, disclosed herein are methods comprising a non-radioactive microtiter plate filter binding assay similar to the one used to examine binding activities of different forms of recombinant MBNL1 in FIG. 3.
The two components of this assay, fluorescence-labeled poly(CUG)^109 (FIG. 2B) and recombinant MBNL1 (FIG. 2A), have been developed and optimal conditions for MBNL1 binding to poly(CUG)^exp have been defined (50 mM Tris pH 8.0, 50 mM NaCl, 50 mM KCl, 1 mM Mg^++, 0.1 mM DTT) (see Preliminary Studies). Pilot binding assays have been carried out using nitrocellulose filters (FIG. 3A). […]

[8] = molecular target: T2, interaction of CUG repeat RNA with recombinant MBNL1 protein (Homo sapiens, UniProt Q9NR56); test: Fluorescence anisotropy assay for inhibitors of CUG repeat RNA-MBNL1 interaction; format: binding; conditions: (CUG)36 transcript 2 nM, aminoglycoside 10 or 50 μM, MBNL1 100 nM
T2 construct: GST (with Prescission protease cleavage site) (N); made in house; host or cells: E. coli BL21(DE3)
Description: Fluorescein-labeled (CUG)36 transcript (2 nM) was incubated first with aminoglycoside compound (10 or 50 μM) and then with excess amount of recombinant MBNL1 protein (100 nM). To calculate the fraction of CUG repeat RNA that remains bound to MBNL1 protein (“% bound CUG^exp”, vertical axis), results are expressed as the percentage of maximal fluorescence anisotropy in assays from which aminoglycosides were omitted. […] Values are the average +/−SD from three measurements.
Fluorescein-labeled (CUG)36 RNA (2 nM) was incubated with MBNL1 protein (100 nM) and anisotropy was measured at time points ranging from 1 to 90 minutes. Increasing values for fluorescence anisotropy indicate interaction of fluorescein-labeled (CUG)36 transcript with MBNL1 protein.
MBNL1 protein is known to bind CUG repeat RNAs that form a stable secondary structure (hairpin structure). Aminoglycoside antibiotics were examined to determine whether these compounds can inhibit the interaction of MBNL1 protein with CUG repeat RNA. Aminoglycosides were selected because they are known to bind structured RNA. […] To calculate the fraction of CUG repeat RNA that remains bound to MBNL1 protein (“% bound CUG^exp”, vertical axis), results are expressed as the percentage of maximal fluorescence anisotropy in assays from which aminoglycosides were omitted. […]

T1 sequence (Q9NR56 1-382 isoform Q9NR56-5): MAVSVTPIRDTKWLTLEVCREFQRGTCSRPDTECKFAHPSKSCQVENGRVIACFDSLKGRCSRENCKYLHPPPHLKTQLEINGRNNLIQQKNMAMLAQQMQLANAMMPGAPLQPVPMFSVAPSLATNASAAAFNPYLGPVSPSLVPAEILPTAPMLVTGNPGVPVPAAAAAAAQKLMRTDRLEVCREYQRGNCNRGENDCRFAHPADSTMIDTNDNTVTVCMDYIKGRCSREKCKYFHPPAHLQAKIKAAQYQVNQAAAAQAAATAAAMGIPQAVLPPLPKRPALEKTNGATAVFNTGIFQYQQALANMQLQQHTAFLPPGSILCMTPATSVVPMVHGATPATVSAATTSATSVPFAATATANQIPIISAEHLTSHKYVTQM
T2 sequence (Q9NR56 1-382 isoform Q9NR56-5): as above

CAG25 morpholino: morpholino comprised entirely of CAG repeats, 25 nucleotides in length (antisense AGCAGCAGCAGCAGCAGCAGCAGCA; all phosphorodiamidate morpholino (PMO))
inhibition of interaction of MBNL1-poly(CUG)^exp RNA in vitro [1]: inhibits the interaction
distribution of MBNL1 in tibialis anterior nuclei [2]: more widely distributed throughout the nucleus
SERCA1 alternative splicing [3]: improved the defect of SERCA1 alternative splicing
ZASP alternative splicing [4]: improved regulation of alternative splicing for ZASP
ClC-1 alternative splicing (exon 7a) [5]: improved the alternative splicing of ClC-1
expression of ClC-1 chloride channel at the surface membrane (ClC-1 chloride channel): increased expression ClC-1 protein at the surface membrane
myotonia severity (EMG) (HSA^LR transgenic mice; 3 weeks after injection): significant reduction of myotonia
myotonia severity (EMG) (HSA^LR transgenic mice; 6 weeks after injection): significant reduction of myotonia

PNA-CAG-12: peptide nucleic acid Nterm-CAGCAGCAGCAG (all peptide nucleic acid (PNA))
interaction with expanded CUG repeat hairpin structures (gel migration of (CUG)109 transcript) ((CUG)109 hairpins): can invade (CUG)109 hairpins
inhibition of interaction of (CUG)109 RNA with MBNL1 protein [6]: inhibit the interaction of (CUG)109 RNA with MBNL1 protein

PNA-CAG-15: peptide nucleic acid Nterm-CAGCAGCAGCAGCAG (all peptide nucleic acid (PNA))
interaction with expanded CUG repeat hairpin structures (gel migration of (CUG)109 transcript) ((CUG)109 hairpins): can invade (CUG)109 hairpins
inhibition of interaction of (CUG)109 RNA with MBNL1 protein [6]: inhibit the interaction of (CUG)109 RNA with MBNL1 protein

gentamicin
activity to inhibit formation of MBNL1-poly(CUG)^exp RNA-protein complexes [7]: highest activity

neomycin
activity to inhibit formation of MBNL1-poly(CUG)^exp RNA-protein complexes [7]: highest activity
inhibition of MBNL1 binding to CUG repeat RNA (% bound CUG^exp) [8]: strongest inhibition
